Experimental data taken from patent US20260256833A1, “USE OF BORON FOR THE TREATMENT OF LEISHMANIASIS DISEASE” (YEDITEPE UNIVERSITESI, priority 2023, published 2026).
Like-named read-outs stand apart in the source and are kept apart here.

Assays:
leishmaniasis = details: cited from earlier work
[1] = tested on: Leishmania infantum (MHOM/MA/67/ITMA-P263) promastigotes; assay: Resazurin / Alamar Blue viability assay on promastigotes; type: cell-based; details: for parasite viability: SPT above 100 μM
Protocol: Leishmania infantum (MHOM/MA/67/ITMA-P263) promastigotes are incubated in RPMI medium (heat inactivated 10% fetal bovine serum, 2 mM L-glutamine, 20 mM HEPES, 100 U/ml penicillin, 100 μg/ml streptomycin) at 27° C. Parasites reaching the logarithmic phase (10^6/ml) are made infective.
Leishmania parasites are incubated in culture medium and the effect of SPT on the proliferation of their promastigotes is analyzed. In summary, Leishmania infantum (MHOM/MA/67/ITMA-P263) promastigotes are incubated in RPMI medium (heat inactivated 10% fetal bovine serum, 2 mM L-glutamine, 20 mM Hepes, 100 U/ml penicillin, 100 μg/ml streptomycin) at 27° C. […] The viability of the parasites is determined by applying Alamar Blue assay. By obtaining IC50 values from the samples whose fluorescence intensities are read according to the Alamar Blue assay protocol, the activities of SPT are determined.

[2] = tested on: L. infantum promastigotes; assay: Phase-contrast and SEM morphology of parasites; type: cell-based, Leishmania infantum; details: 24 and 48 hours of incubation with SPT
Protocol: In parallel to this, Leishmania parasites incubated with SPT at different concentrations were morphologically examined under scanning electron microscopy.

[3] = tested on: macrophages infected with L. infantum; assay: Infection rate of infected macrophages by flow cytometry; type: cell-based, Leishmania infantum; details: SPT 50, 75, 100, 150, 200 and 400 μM; 24, 48 and 72 hours
Protocol: RAW264.7 macrophage cells and L. infantum promastigotes were stained with PKH26 (Red Fluorescent Cell Linker Kit, Sigma-Aldrich) and PKH67 (Green Fluorescent Cell Linker Kit, Sigma-Aldrich), respectively, according to the procedure described previously in the article by Islek et al. (2021). A total cell concentration of 10^7 cells/ml was used. Before infection, the staining rate of parasites and cells was determined by flow cytometry.
The effect of SPT on the proliferation of macrophage cells infected with parasites is analyzed. In summary, macrophages are infected with parasites at 37° C. at a ratio of 10:1 (parasite: macrophage). After 3 and a half hours, infected macrophages are washed with medium to remove the remaining parasites. Infected macrophages are left to incubate with SPT at different concentration ranges at 37° C. for 3 days, fixed at the end of 3 days and the infection rate is determined by flow cytometer. The percentage of infection is determined according to the following formula: […]

[4] = tested on: L. infantum promastigotes; assay: Mitochondrial membrane potential, Rhodamine 123; type: cell-based, Leishmania infantum
Protocol: Mitochondrial membrane potential (ΔΨPm) is measured by using Rhodamine 123 mitochondrial specific fluorescent dye (Sigma-Aldrich). In summary, cells were seeded in a 48-well plate at 300.000 parasites/well. The following day, parasites are treated with SPT at various concentrations (50-400 uM) for 24 and 48 hours. After incubation, cells are resuspended in serum-free RPMI containing 10 μM Rhodamine 123 and incubated in the dark at 37-C for 30 minutes. They are then centrifuged and washed twice with 1×DPBS. The cell suspension is transferred to a 96-well plate and fluorescence intensities are measured at 490 nm excitation and 515 nm emission by using a spectrophoto-fluorimeter (Varioskan LUX multimode reader, Thermo Scientific). Absorbance is evaluated as a fold change with respect to the negative control group.

CCCCCCCCCCCCCCCCOP(=O)([O-])OCC[N+](C)(C)C [Miltefosine]
cure (comparison data) (leishmaniasis; miltefosine data compared with 6-month Amphotericin B therapy): 94%
cure level (leishmaniasis; oral, 3-4-week treatment): 95-100%

O.O.O.O.[Na+].[O-]B1OO1 [SPT, sodium perborate tetrahydrate]
IC50 ([1]; 72 hours): 72 ± 7.51 µM
cell viability ([1]; SPT 75 μM, 24 hours): below 80%
cell viability ([1]; SPT 75 μM, 48 hours): < 55%
viability of promastigotes ([1]; SPT 75 μM, 72 hours): 50%
reduction in parasite viability ([1]; SPT 100, 125, 150 and 200 μM, 72 hours): approximately 80%
parasite viability ([1]; 24 hours): < 33%
parasite viability ([1]; 48 hours): < 25%
cell viability ([1]; SPT ≤50 uM, 24, 48 and 72 hours): above 80%
cell number and morphology by microscopy [2]: dose-dependent decrease in cell number
infection rate [3]: infection rate did not increase regardless of time and concentration
mitochondrial membrane potential ([4]; SPT 100 μM, 24 hours): 52.2%
mitochondrial membrane potential ([4]; SPT 100 μM, 48 hours): 32.8%
mitochondrial membrane potential ([4]; SPT 150 μM, 24 hours): 39.1%
mitochondrial membrane potential ([4]; SPT 150 μM, 48 hours): 34.1%
mitochondrial membrane potential ([4]; SPT 200 μM, 24 hours): 57.5%
mitochondrial membrane potential ([4]; SPT 200 μM, 48 hours): 41.5%
mitochondrial membrane potential ([4]; SPT 400 μM, 24 hours): 44.6%
mitochondrial membrane potential ([4]; SPT 400 μM, 48 hours): 30.1%
percentage of mitochondrial membrane potential ([4]; SPT ≤75 uM, 24 and 48 hours): above 80%
mitochondrial membrane potential ([4]; SPT ≥100 μM, 24 hours): below 53%
mitochondrial membrane potential ([4]; SPT ≥100 μM, 48 hours): below 35%

C[C@@H]1[C@H](O)[C@@H](C)/C=C/C=C/C=C/C=C/C=C/C=C/C=C/[C@H](O[C@@H]2O[C@H](C)[C@@H](O)[C@H](N)[C@@H]2O)C[C@@H]2O[C@](O)(C[C@@H](O)C[C@@H](O)[C@H](O)CC[C@@H](O)C[C@@H](O)CC(=O)O[C@H]1C)C[C@H](O)[C@H]2C(=O)O [Amphotericin B]
cure (comparison data) (leishmaniasis; 6-month therapy): 97%
cure rate (leishmaniasis; cases where antimonial resistance is observed): ~100%
